Measurements from the supplement of paper PMC10307832.

Legend:
Assay in all cases: relative viability (nuclei count vs DMSO), 5 days (fraction); higher = more cells survive
A549 = tested on: A549
Procedure, shortened: (§1)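 Lung cancer cell lines were seeded in 1536-well plates and dosed by pin tool the next day, with either a single drug or a fixed anchor-drug dose combined with five library-drug doses (not always all listed) spaced in √10 steps. Five days later, one step fixed the cells and stained their nuclei (final 0.05% Triton X-100, 1% formaldehyde, 1 ug/ml Hoechst), and nuclei were counted on 4× images. Relative viability is the nuclei count in treated wells divided by the count in vehicle wells, and each value is the median of duplicate plates.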

NCI-H1703 = tested on: NCI-H1703
Procedure, shortened: as §1

Calu-6 = tested on: Calu-6
Procedure, shortened: as §1

NCI-H1299 = tested on: NCI-H1299
Procedure, shortened: as §1

IA-LM = tested on: IA-LM
Procedure, shortened: as §1

NCI-H1623 = tested on: NCI-H1623
Procedure, shortened: as §1

SMILES: CCCCCCCCCCCC1=C(O)C(=O)C=C(O)C1=O [Embelin] + CC1(C)CCC(c2ccc(Cl)cc2)=C(CN2CCN(c3ccc(C(=O)NS(=O)(=O)c4ccc(N[C@H](CCN5CCOCC5)CSc5ccccc5)c(S(=O)(=O)C(F)(F)F)c4)cc3)CC2)C1 [Navitoclax] (partner 0.5 µM)
- relative viability (A549; first compound 0.08 µM): 1.21
- relative viability (A549; first compound 0.8 µM): 1.35
- relative viability (A549; first compound 2.53 µM): 1.21
- relative viability (A549; first compound 8 µM): 1.3
- relative viability (NCI-H1703; first compound 0.08 µM): 1.29
- relative viability (NCI-H1703; first compound 0.8 µM): 1.26
- relative viability (NCI-H1703; first compound 2.53 µM): 1.06
- relative viability (NCI-H1703; first compound 8 µM): 1.06
- relative viability (Calu-6; first compound 0.08 µM): 0.837
- relative viability (Calu-6; first compound 0.8 µM): 1.01
- relative viability (Calu-6; first compound 2.53 µM): 0.904
- relative viability (Calu-6; first compound 8 µM): 0.831
- relative viability (NCI-H1299; first compound 0.08 µM): 1.09
- relative viability (NCI-H1299; first compound 0.8 µM): 1.1
- relative viability (NCI-H1299; first compound 2.53 µM): 1.09
- relative viability (NCI-H1299; first compound 8 µM): 1.02
- relative viability (IA-LM; first compound 0.08 µM): 1.03
- relative viability (IA-LM; first compound 0.8 µM): 0.87
- relative viability (IA-LM; first compound 2.53 µM): 0.92
- relative viability (IA-LM; first compound 8 µM): 0.305

SMILES: CCCCCCCCCCCC1=C(O)C(=O)C=C(O)C1=O [Embelin] + CC(C)C[C@H](NC(=O)[C@H](Cc1ccccc1)NC(=O)c1cnccn1)B(O)O [Bortezomib] (partner 0.002 µM)
- relative viability (NCI-H1703; first compound 0.08 µM): 0.26
- relative viability (NCI-H1703; first compound 0.8 µM): 0.549
- relative viability (NCI-H1703; first compound 2.53 µM): 0.361
- relative viability (NCI-H1703; first compound 8 µM): 0.236
- relative viability (Calu-6; first compound 0.08 µM): 1.1
- relative viability (Calu-6; first compound 0.8 µM): 1.03
- relative viability (Calu-6; first compound 2.53 µM): 0.966
- relative viability (Calu-6; first compound 8 µM): 1.15
- relative viability (NCI-H1299; first compound 0.08 µM): 1.06
- relative viability (NCI-H1299; first compound 0.8 µM): 1.05
- relative viability (NCI-H1299; first compound 2.53 µM): 1.07
- relative viability (NCI-H1299; first compound 8 µM): 1.03
- relative viability (IA-LM; first compound 0.08 µM): 0.769
- relative viability (IA-LM; first compound 0.8 µM): 0.904
- relative viability (IA-LM; first compound 2.53 µM): 0.913
- relative viability (IA-LM; first compound 8 µM): 0.381

SMILES: CCCCCCCCCCCC1=C(O)C(=O)C=C(O)C1=O [Embelin] + CCNC(=O)c1noc(-c2cc(C(C)C)c(O)cc2O)c1-c1ccc(CN2CCOCC2)cc1 [Luminespib] (partner 0.01 µM)
- relative viability (NCI-H1623; first compound 0.08 µM): 0.577
- relative viability (NCI-H1623; first compound 0.8 µM): 0.478
- relative viability (NCI-H1623; first compound 2.53 µM): 0.484
- relative viability (NCI-H1623; first compound 8 µM): 0.452

SMILES: CCCCCCCCCCCC1=C(O)C(=O)C=C(O)C1=O [Embelin] + COc1cc2c(Oc3ccc(NC(=O)C4(C(=O)Nc5ccc(F)cc5)CC4)cc3F)ccnc2cc1OCCCN1CCOCC1 [Foretinib] (partner 0.25 µM)
- relative viability (A549; first compound 0.08 µM): 0.906
- relative viability (A549; first compound 0.8 µM): 1.05
- relative viability (A549; first compound 2.53 µM): 1.09
- relative viability (A549; first compound 8 µM): 1.04
- relative viability (NCI-H1703; first compound 0.08 µM): 0.413
- relative viability (NCI-H1703; first compound 0.8 µM): 0.404
- relative viability (NCI-H1703; first compound 2.53 µM): 0.392
- relative viability (NCI-H1703; first compound 8 µM): 0.314
- relative viability (NCI-H1623; first compound 0.08 µM): 0.889
- relative viability (NCI-H1623; first compound 0.8 µM): 0.872
- relative viability (NCI-H1623; first compound 2.53 µM): 0.876
- relative viability (NCI-H1623; first compound 8 µM): 0.853
- relative viability (Calu-6; first compound 0.08 µM): 0.86
- relative viability (Calu-6; first compound 0.8 µM): 1.01
- relative viability (Calu-6; first compound 2.53 µM): 0.883
- relative viability (Calu-6; first compound 8 µM): 1.03
- relative viability (NCI-H1299; first compound 0.08 µM): 1.08
- relative viability (NCI-H1299; first compound 0.8 µM): 1.11
- relative viability (NCI-H1299; first compound 2.53 µM): 1.14
- relative viability (NCI-H1299; first compound 8 µM): 1.13
- relative viability (IA-LM; first compound 0.08 µM): 1.05
- relative viability (IA-LM; first compound 0.8 µM): 1.17
- relative viability (IA-LM; first compound 2.53 µM): 1.16
- relative viability (IA-LM; first compound 8 µM): 1.16

SMILES: CCCCCCCCCCCC1=C(O)C(=O)C=C(O)C1=O [Embelin] + COc1cccc2cc(-c3nc([C@H]4CC[C@H](C(=O)O)CC4)n4ncnc(N)c34)[nH]c12 [OSI-027] (partner 0.5 µM)
- relative viability (NCI-H1623; first compound 0.08 µM): 0.486
- relative viability (NCI-H1623; first compound 0.8 µM): 0.41
- relative viability (NCI-H1623; first compound 2.53 µM): 0.468
- relative viability (NCI-H1623; first compound 8 µM): 0.494

SMILES: CCCCCCCCCCCC1=C(O)C(=O)C=C(O)C1=O [Embelin] + CS(=O)(=O)CCNCc1ccc(-c2ccc3ncnc(Nc4ccc(OCc5cccc(F)c5)c(Cl)c4)c3c2)o1 [Lapatinib] (partner 2 µM)
- relative viability (A549; first compound 0.08 µM): 0.923
- relative viability (A549; first compound 0.8 µM): 1.12
- relative viability (A549; first compound 2.53 µM): 1.12
- relative viability (A549; first compound 8 µM): 1.1
- relative viability (NCI-H1703; first compound 0.08 µM): 1.2
- relative viability (NCI-H1703; first compound 0.8 µM): 1.6
- relative viability (NCI-H1703; first compound 2.53 µM): 1.02
- relative viability (NCI-H1703; first compound 8 µM): 1.23
- relative viability (Calu-6; first compound 0.08 µM): 1.03
- relative viability (Calu-6; first compound 0.8 µM): 1.11
- relative viability (Calu-6; first compound 2.53 µM): 1.08
- relative viability (Calu-6; first compound 8 µM): 1.14
- relative viability (NCI-H1299; first compound 0.08 µM): 0.943
- relative viability (NCI-H1299; first compound 0.8 µM): 0.971
- relative viability (NCI-H1299; first compound 2.53 µM): 0.991
- relative viability (NCI-H1299; first compound 8 µM): 0.967
- relative viability (IA-LM; first compound 0.08 µM): 0.769
- relative viability (IA-LM; first compound 0.8 µM): 0.894
- relative viability (IA-LM; first compound 2.53 µM): 0.789
- relative viability (IA-LM; first compound 8 µM): 0.645

SMILES: CCCCCCCCCCCC1=C(O)C(=O)C=C(O)C1=O [Embelin] + CS(=O)(=O)N1CCN(Cc2cc3nc(-c4cccc5[nH]ncc45)nc(N4CCOCC4)c3s2)CC1 [Pictilisib] (partner 1 µM)
- relative viability (A549; first compound 0.08 µM): 0.554
- relative viability (A549; first compound 0.8 µM): 0.596
- relative viability (A549; first compound 2.53 µM): 0.53
- relative viability (A549; first compound 8 µM): 0.527
- relative viability (NCI-H1703; first compound 0.08 µM): 0.232
- relative viability (NCI-H1703; first compound 0.8 µM): 0.315
- relative viability (NCI-H1703; first compound 2.53 µM): 0.241
- relative viability (NCI-H1703; first compound 8 µM): 0.232
- relative viability (Calu-6; first compound 0.08 µM): 0.949
- relative viability (Calu-6; first compound 0.8 µM): 1.12
- relative viability (Calu-6; first compound 2.53 µM): 1.1
- relative viability (Calu-6; first compound 8 µM): 0.891
- relative viability (NCI-H1299; first compound 0.08 µM): 0.873
- relative viability (NCI-H1299; first compound 0.8 µM): 0.832
- relative viability (NCI-H1299; first compound 2.53 µM): 0.784
- relative viability (NCI-H1299; first compound 8 µM): 0.887
- relative viability (IA-LM; first compound 0.08 µM): 0.367
- relative viability (IA-LM; first compound 0.8 µM): 0.326
- relative viability (IA-LM; first compound 2.53 µM): 0.383
- relative viability (IA-LM; first compound 8 µM): 0.249
